This note sets out measurements from patent US20100239563A1 (priority 2001, published 2010).

For experiment [1], the system named is influenza A virus A/WSN-HK (H3N1). The experiment is classed as cell-based.
Experiment [2] has as its system influenza B virus strain Massachusetts/6/93.

Take `N#CC(=C(N)Sc1ccccc1N)C(C#N)=C(N)Sc1ccccc1N` [U0126, 1,4-diamino-2,3-dicyano-1,4-bis(2-aminophenylthio)butadiene]: the “titer of infectious virus particles over infection sequences” value in experiment [1] is on record as “significant reduction of the influenza virus particles”. Moreover, in experiment [2], the “reduction of the number of newly formed infectious influenza B virus particles” value is on record as “approx. 90%”.

Regarding `NC12CC3CC(CC(C3)C1)C2` [amantadine, 1-adamantanamine], the “titer of infectious virus particles over infection sequences” value in experiment [1] is “increased, in spite of the amantadine treatment”.
